Tests used:
Type in all cases: cell-based, human
IL-6 = experiment: IL-1ß-induced IL-6 expression in OA chondrocytes (RT-PCR and ELISA); conditions: IL-1ß 5 ng/ml, 24 h; EGCG 10 μM; HA or conjugate at two concentrations (FIGS. 2, 5)
Method: (§1) Cryopreserved human osteoarthritis chondrocytes (passage 1) were obtained from Cell Applications, INC. (USA). The cells were thawed and cultured in T75 cell culture flasks using complete growth medium (DMEM/F12 medium supplemented with 10% FBS and 1% penicillin/streptomycin). The cells were maintained at 37° C. and 5% CO2 atmosphere. Growth medium was replaced every 2-3 days and the cells were subcultured at 80% confluency. Only cells at passage 2 and 3 were used in this study. After expansion, the cells were re-differentiated in alginate beads according to previously established protocol with some modifications. Briefly, cells were trypsinized, pelleted and resuspended in 1.2% (w/v) sodium alginate in 0.15 M NaCl. The cell suspension was dispensed through a 210 needle dropwise into gelation solution (102 mM CaCl2, 10 mM HEPES and 0.0005% Tween 20, pH 7.4). Approximately 15 alginate beads were dispensed in 5 ml of gelation solution in a 6-wellplate. After gelation for 10 min, the gelation solution was removed and the alginate beads were washed twice with 5 ml of 0.15 M NaCl. Complete growth medium (5 ml) was then added and the cells were re-differentiated for 8 days in the alginate beads. Medium was changed every 2-3 days. After 8 days, the alginate beads were solubilized in dissolution solution (55 mM EDTA and 10 mM HEPES, pH 7.4).

TNF-α = experiment: IL-1ß-induced TNF-α expression in OA chondrocytes (RT-PCR and ELISA); conditions: IL-1ß 5 ng/ml, 24 h; EGCG 10 μM; HA or conjugate at two concentrations (FIGS. 2, 5)
Method: as §1

MMP-1 = experiment: IL-1ß-induced MMP-1 expression in OA chondrocytes (RT-PCR and ELISA); conditions: IL-1ß 5 ng/ml, 24 h; EGCG 10 μM; HA or conjugate at two concentrations (FIGS. 3, 6)
Method: as §1

MMP-3 = experiment: IL-1ß-induced MMP-3 expression in OA chondrocytes (RT-PCR and ELISA); conditions: IL-1ß 5 ng/ml, 24 h; EGCG 10 μM; HA or conjugate at two concentrations (FIGS. 3, 6)
Method: as §1

MMP-13 = experiment: IL-1ß-induced MMP-13 expression in OA chondrocytes (RT-PCR and ELISA); conditions: IL-1ß 5 ng/ml, 24 h; EGCG 10 μM; HA or conjugate at two concentrations (FIGS. 3, 6)
Method: as §1

O=C(O[C@@H]1Cc2c(O)cc(O)cc2O[C@@H]1c1cc(O)c(O)c(O)c1)c1cc(O)c(O)c(O)c1 [EGCG, epigallocatechin gallate]
effectively inhibited: downregulation of IL-1ß-induced IL-6 gene and protein expression (IL-6) | downregulation of IL-1ß-induced TNF-α gene and protein expression (TNF-α) | downregulation of IL-1ß-induced MMP-1 gene and protein expression (MMP-1) | downregulation of IL-1ß-induced MMP-3 gene and protein expression (MMP-3) | downregulation of IL-1ß-induced MMP-13 gene and protein expression (MMP-13)

Source: patent publication US10406175B2, “Polymer-flavonoid conjugate and uses thereof” (Agency for Science, Technology and Research, priority 2014, dated 2019)
